Publication PMC6370995, “Phase I study of PF‐04895162, a Kv7 channel opener, reveals unexpected hepatotoxicity in healthy subjects, but not rats or monkeys: clinical evidence of disrupted bile acid homeostasis” (Pharmacology Research & Perspectives, 2019)

Key:
[1] = test system: palmitate fatty acid oxidation; assay: mitochondrial fatty acid oxidation inhibition using palmitate; assay type: biochemical; conditions: N = 2; read-out: IC50 for impaired palmitate fatty acid oxidation
Description: […]

Sprague-Dawley rats = assay: 6-Month Oral Toxicity Study in Sprague Dawley Rats; assay type: in vivo, rat
Method: In the longer-term studies Sprague-Dawley rats were administered PF-04895162 once daily for 28 days or 6 months at doses up to 100 mg/kg/day. […] The drug was well absorbed into the systemic circulation of male and female rats following oral administration for 6 months.

## O=C(Cc1ccc(F)cc1)Nn1c(C2CC2)nc2cc(F)ccc2c1=O [PF‐04895162, N‐(2‐cyclopropyl‐7‐fluoro‐4‐oxoquinazolin‐3(4H)‐yl)‐2‐(4‐fluorophenyl)ethanamide]
[1]
  IC50: ~70 µM
Sprague-Dawley rats; 6 months, up to 100 mg/kg/day
  liver weights: Increased liver weights
Sprague-Dawley rats; 10, 30 and 100 mg/kg/day, 6 months
  deaths: no test-article related deaths
Sprague-Dawley rats; by the end of the 6 month study
  accumulation of parent drug / induction of drug metabolizing enzymes: no evidence of accumulation of parent drug or any apparent induction of drug metabolizing enzymes
Sprague-Dawley rats; females at 30 mg/kg/day and males and females at 100 mg/kg/day for 6 months
  Microscopic changes in liver: centrilobular hypertrophy
Sprague-Dawley rats; females only, Days 1 and 91 at 30 and 100 mg/kg/day
  body temperature: mild decrease in body temperature
Sprague-Dawley rats; males and females at 100 mg/kg/day, entire 6-month period
  Mean food consumption: less compared to controls
Sprague-Dawley rats; males and/or females at 30 and/or 100 mg/kg/day
  clinical chemistry changes: higher phosphorus, potassium, bilirubin, and cholesterol values and lower chloride and glucose levels
Sprague-Dawley rats; males at 30 and 100 mg/kg/day, females at 100 mg/kg/day
  Mean body weights: lower compared to controls
Sprague-Dawley rats; once daily for 6 months, up to 100 mg/kg/day
  transaminases: No transaminase elevations
